Results as given in patent publication US9326984B2, “Compounds and pharmaceutical compositions for treating disorders associated with the 5-HT1A and 5-HT2A receptors” (priority 2010, dated 2016).

How the values were obtained:
[1] = molecular target: T1, 5-HT2A receptors (Rattus norvegicus, UniProt P14842); experiment: In vitro affinity (radioligand binding inhibition) assay, 3[H]-ketanserin, rat cortex; details: for inhibition at 0.3 µM / inhibition at 1 µM / inhibition at 3 µM: read-out: 5-HT2A Inhibition Percentage; for IC50: 3[H]-ketanserin 1 nM, rat cortex, 3-3000 nM in duplicate, read-out: 5-HT2A CI50; for 5-HT2A CI50/affinity compared with the comparative compound: comparison in words versus Flibanserin (and Example 1)
T1 construct: The assay tissue was rat cortex; from tissue; host or cells: rat cortex
Description: (§1) The determination of the activity of the synthesized compounds was conducted through assays assessing affinity with the 5-HT1A and 5-HT2A serotonin receptors. The assays used are based on the binding ratings of the substances being tested at different concentrations, compared to the affinity in the single concentration of the radioligands (markers) that have a specific affinity for these receptors.
(§2) These assays, known as binding assays and also known as inhibition experiments, are able to determine the affinity of a substance through the receptor, provided that this substance is soluble under the assay conditions.
(§3) In an inhibition experiment, the quantity of an inhibitor substance (non radioactive—sample or compound being tested) included in the incubation is the only variable, meaning that it is possible to determine for each test drug concentration, the binding inhibition percentage of the radioligand.
(§4) CI50 is a value defined as the concentration of an unbranded substance (test sample) required to inhibit the specific binding of the radioligand in 50% of the receptors.
(§5) The affinity assays with the 5-HT1A and 5-HT2A receptors of the compounds addressed by this invention were conducted by the Biochemical and Molecular Pharmacology Laboratory at the Biomedical Science Institute in Rio de Janeiro Federal University (UFRJ), using its own protocols.
(§6) […] The development of the experiment protocol to assess compounds with affinity for the 5-HT1A receptors was developed on the basis of the experiments conducted by Hall et al (Journal of Neurochemistry (1985) 44: 1685-1696); Mongeau et al (Brain Research (1992) 590: 229-238) and Peroutka (Journal of Neurochemistry (1986) 47: 529-540). The 5-HT2A receptors were based on the studies conducted by Johnson et al (Naunyn-Schmiedeberg's Arch. Pharmacol. (1996) 354 (2): 205-209); Leysen et al (Molecular Pharmacology (1982) 21: 301-314) and Nelson et al (Journal of Pharmacology and Experimental Therapeutics (1993) 265: 1272-1279).
(§7) In order to determine the affinity with the 5-HT2A receptors, 3[H]-ketanserin (1 nM) was used as a ligand and ketanserin (1 μM) as a non-specific ligand. The assay tissue was rat cortex. Table 1 below summarizes the CI50 values obtained for the inventive compounds presented in Examples 1 and 8. In order to determine the CI50 of these compounds, the inhibition assays were conducted using the compounds at concentrations of 3, 10, 30, 100, 300, 1000 and 3000 nM (in duplicate) for both receptors.

[2] = molecular target: T2, 5-HT1A receptors (Rattus norvegicus, UniProt P19327); experiment: In vitro affinity (radioligand binding inhibition) assay, 3[H]-8-OH-DPAT, rat hippocampus; details: for inhibition at 0.03 µM: 30 nM; for inhibition at 0.03 µM / inhibition at 0.1 µM / inhibition at 0.3 µM / IC50: rat hippocampus; for inhibition at 0.03 µM / inhibition at 0.1 µM / inhibition at 0.3 µM: read-out: 5-HT1A Inhibition Percentage; for inhibition at 0.1 µM: 100 nM; for inhibition at 0.3 µM: 300 nM; for IC50: 3[H]-8-OH-DPAT 1 nM, 3-3000 nM in duplicate, read-out: 5-HT1A CI50; for 5-HT1A CI50 compared with the comparative compound: comparison in words/fold versus Flibanserin; for 5-HT2A/5-HT1A CI502A/CI501A: ratio of CI50 5-HT2A to CI50 5-HT1A
T2 construct: The assay tissue was rat hippocampus; from tissue; host or cells: rat hippocampus
T2 sequence (P19327 1-422): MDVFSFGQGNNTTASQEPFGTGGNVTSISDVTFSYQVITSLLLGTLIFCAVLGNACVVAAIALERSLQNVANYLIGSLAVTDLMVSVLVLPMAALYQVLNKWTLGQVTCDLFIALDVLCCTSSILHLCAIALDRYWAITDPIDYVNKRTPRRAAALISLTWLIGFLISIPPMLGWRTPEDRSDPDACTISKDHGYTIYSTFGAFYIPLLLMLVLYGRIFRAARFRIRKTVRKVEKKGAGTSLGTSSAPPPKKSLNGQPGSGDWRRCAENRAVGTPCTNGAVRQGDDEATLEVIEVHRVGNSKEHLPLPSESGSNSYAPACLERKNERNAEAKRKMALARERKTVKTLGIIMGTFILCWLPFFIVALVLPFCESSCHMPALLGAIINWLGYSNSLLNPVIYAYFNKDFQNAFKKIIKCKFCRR
Description: as §1, §2, §3, §4, §5, §6
The affinity with the 5-HT1A receptors was assayed by using 3[H]-8-OH-DPAT (3[H]-8-hydroxy-N,N-dipropyl-2-aminotetraline) (1 nM) as a ligand, and 5-HT (5-hydroxytiptamine-serotonin) (10 μM) as a non-specific ligand. The assay tissue was rat hippocampus.
as §7

[3] = tested on: 5-HT receptors; experiment: In vivo efficacy test: Serotonin Syndrome Model in rats (modified Irwin method); parameters: species or system rat; details: 15 mg/kg intraperitoneal, observed 15, 30 and 60 minutes after administration
Description: For the efficacy assay, the compounds addressed by this invention were submitted to the modified Irwin assay. The assays were conducted by Porsolt, using a specific protocol for evaluation.
In order to determine the in vivo efficacy of the compounds addressed by this invention, the Serotonin Syndrome Model in rats was used. The model was based in the Irwin method (Psychopharmacologia (1968), 13: 222-257), adapted to assess the effects of seroton agonists pursuant to Martin et al (Journal of Pharmacol. Meth. (1985), 13: 193-200) and Ortman et al (Naunyn-Schmiedeberg's Arch. Pharmacol (1981), 316: 225-230).
Two animals from each group were assessed through a series of separate observations. Escitalopram was used as the positive control for the study.
Behavioral and physiological alterations as well as neurotoxicity symptoms, rectal temperature and pupil diameter were recorded.
Additionally, the specific signs related to the stimulation of the 5-HT receptors were observed and quantified, being: head twitches (HT), fore paw treading (FPT), flat body posture (FBP), hind limb splay (HLS), lower lip retraction (LLR) and spontaneous tail flicks (STF) (Straub).
The observations were conducted at 15, 30 and 60 minutes after administration of the compounds being tested.
The compounds were tested as set forth in Examples 1 and 7. As the comparative compound 1,3-dihydro-1-(2-(4-(3-(trifluoromethyl)phenyl)-1-piperazinyl)ethyl)-2H-benzimidizol-2-one (Flibanserin) was used. All the compounds were administered at a dose of 15 mg/kg, intraperitoneal.
The observations of the specific stimulation data of the 5-HT receptors by each compound are presented in the graph given in FIG. 1.

T1 sequence (P14842 whole entry): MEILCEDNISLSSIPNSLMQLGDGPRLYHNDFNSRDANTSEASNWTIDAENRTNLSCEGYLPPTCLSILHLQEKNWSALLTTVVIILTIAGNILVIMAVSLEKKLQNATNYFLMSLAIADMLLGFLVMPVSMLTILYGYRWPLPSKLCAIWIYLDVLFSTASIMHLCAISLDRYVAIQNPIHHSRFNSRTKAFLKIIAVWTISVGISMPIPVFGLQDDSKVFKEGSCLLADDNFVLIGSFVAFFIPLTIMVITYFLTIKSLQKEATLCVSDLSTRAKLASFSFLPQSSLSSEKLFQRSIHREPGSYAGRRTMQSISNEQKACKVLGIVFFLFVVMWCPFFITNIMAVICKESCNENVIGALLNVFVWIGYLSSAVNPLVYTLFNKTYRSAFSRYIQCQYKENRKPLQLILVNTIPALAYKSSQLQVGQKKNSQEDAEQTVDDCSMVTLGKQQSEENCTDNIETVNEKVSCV

With `COc1ccccc1N1CCN(CCn2cnc3ccccc3c2=O)CC1` [Example 6, 3-(2-(4-(2-methoxyphenyl)piperazine-1-yl)ethyl)quinazoline-4 (3H)-one] the inhibition at 0.3 µM [1] was 43%, the inhibition at 1 µM [1] was 63% and the inhibition at 0.03 µM [2] was 38%. It also gave an inhibition at 0.1 µM [2] of 66%.

`CCOc1ccccc1N1CCN(CCn2c(CC)nc3ccccc3c2=O)CC1` [Example 10, 2-ethyl-3-(2-(4-(2-ethoxyphenyl)piperazine-1-yl)ethyl)quinazoline-4 (3H)-one] was tested, and the inhibition at 0.3 µM [1] was 8%, the inhibition at 1 µM [1] was 27% and the inhibition at 3 µM [1] was 58%. It also gave an inhibition at 0.03 µM [2] of 26%, an inhibition at 0.1 µM [2] of 51% and an inhibition at 0.3 µM [2] of 79%.

With `O=c1c2ccccc2ncn1CCN1CCN(c2cccc(C(F)(F)F)c2)CC1` [Example 1, 3-(2-(4-(3-(trifluoromethyl)phenyl)piperazine-1-yl)ethyl)quinazoline-4 (3H)-one] the IC50 [1] was 570 nM, the “5-HT2A CI50/affinity compared with the comparative compound” value [1] was “a value slightly higher than the value obtained for the comparative compounds” and the IC50 [2] was 47 nM. The “5-HT1A CI50 compared with the comparative compound” value [2] was “the same CI50 value as the comparative compound”, the “5-HT2A/5-HT1A CI502A/CI501A” value [2] was 12 and the “signs of stimulation of the 5-HT receptors (HT, FPT, FBP, HLS, LLR, STF)” value (“signs” below) [3] was “triggered spontaneous tail flicks (STF)”.

In the case of `CCc1nc2ccccc2c(=O)n1CCN1CCN(c2cccc(C(F)(F)F)c2)CC1` [Example 7, 2-ethyl-3-(2-(4-(3-(trifluoromethyl)phenyl)piperazine-1-yl)ethyl)quinazoline-4 (3H)-one], the IC50 [1] is reported as 707 nM, the “5-HT2A CI50/affinity compared with the comparative compound” value [1] is reported as “greater affinity than the comparison compound and the compound in Example 1” and the IC50 [2] is reported as 253 nM. The “5-HT1A CI50 compared with the comparative compound” value [2] was “five times greater”, the “5-HT2A/5-HT1A CI502A/CI501A” value [2] was 2.7 and the “signs” value [3] was “triggered fore paw treading (FPT) and more spontaneous tail flicks (STF)”.

Work on `CCc1nc2ccccc2c(=O)n1CCN1CCN(c2cccc(C)c2C)CC1` [Example 8, 3-(2-(4-(2,3-dimethylphenyl)piperazine-1-yl)ethyl)-2-ethylquinazoline-4 (3H)-one] yielded an inhibition at 0.3 µM [1] of 67%, an inhibition at 1 µM [1] of 86% and an inhibition at 3 µM [1] of 94%. It also gave an inhibition at 0.03 µM [2] of 26%, an inhibition at 0.1 µM [2] of 76% and an inhibition at 0.3 µM [2] of 77%.

In the case of `CCc1nc2ccccc2c(=O)n1CCN1CCN(c2ccccc2Cl)CC1` [Example 11, 3-(2-(4-(2-chlorophenyl)piperazine-1-yl)ethyl)-2-ethylquinazoline-4 (3H)-one], the inhibition at 0.3 µM [1] is reported as 25%, the inhibition at 1 µM [1] is reported as 52% and the inhibition at 3 µM [1] is reported as 79%. The inhibition at 0.03 µM [2] was 5%, the inhibition at 0.1 µM [2] was 26% and the inhibition at 0.3 µM [2] was 38%.

Work on `O=c1c2ccccc2ncn1CCN1CCN(c2ccccc2Cl)CC1` [Example 4, 3-(2-(4-(2-chlorophenyl)piperazine-1-yl)ethyl)quinazoline-4 (3H)-one] yielded an inhibition at 0.3 µM [1] of 48%, an inhibition at 1 µM [1] of 77% and an inhibition at 0.03 µM [2] of 22%. The inhibition at 0.1 µM [2] was 84%.

`Cc1ccccc1N1CCN(CCn2cnc3ccccc3c2=O)CC1` [Example 2, 3-(2-(4-o-tolylpiperazine-1-yl)ethyl)quinazoline-4 (3H)-one] was tested, and the inhibition at 0.3 µM [1] was 61%, the inhibition at 1 µM [1] was 82% and the inhibition at 0.03 µM [2] was 21%. For the same compound, the inhibition at 0.1 µM [2] was 51%.

In the case of `Cc1cccc(N2CCN(CCn3cnc4ccccc4c3=O)CC2)c1C` [Example 3, 3-(2-(4-(2,3-dimethylphenyl)piperazine-1-yl)ethyl)quinazoline-4 (3H)-one], the inhibition at 0.3 µM [1] is reported as 89%, the inhibition at 1 µM [1] is reported as 88% and the inhibition at 0.03 µM [2] is reported as 47%. It also gave an inhibition at 0.1 µM [2] of 84%.

`O=c1[nH]c2ccccc2n1CCN1CCN(c2cccc(C(F)(F)F)c2)CC1` [Comparative Compound, 1.3-Dihydro-1-(2-(4-(3-(trifluoromethyl)phenyl)-1-piperazinyl)ethyl)-2H-benzimidizol-2-one, reference compound] was tested, and the IC50 [1] was 453 nM, the IC50 [2] was 47 nM and the “5-HT2A/5-HT1A CI502A/CI501A” value [2] was 9.6. For the same compound, the “signs” value [3] was “only one presented signs of stimulation of the 5-HT receptors, which were spontaneous tail flicks”.

`CCc1nc2ccccc2c(=O)n1CCN1CCN(c2ccccc2OC)CC1` [Example 9, 2-ethyl-3-(2-(4-(2-methoxyphenyl)piperazine-1-yl)ethyl)quinazoline-4 (3H)-one] showed an inhibition at 0.3 µM [1] of 13%, an inhibition at 1 µM [1] of 46% and an inhibition at 3 µM [1] of 78%. For the same compound, the inhibition at 0.03 µM [2] was 17%, the inhibition at 0.1 µM [2] was 46% and the inhibition at 0.3 µM [2] was 69%.

`N#Cc1ccccc1N1CCN(CCn2cnc3ccccc3c2=O)CC1` [Example 5, 3-(2-(4-(2-cyanophenyl)piperazine-1-yl)ethyl)quinazoline-4 (3H)-one] showed an inhibition at 0.3 µM [1] of 38%, an inhibition at 1 µM [1] of 78% and an inhibition at 0.03 µM [2] of 12%. For the same compound, the inhibition at 0.1 µM [2] was 49%.
